Source: patent US20130184462A1, “METHOD FOR PREDICTING AND MODELING ANTI-PSYCHOTIC ACTIVITY USING VIRTUAL SCREENING MODEL” (COUNCIL OF SCIENTIFIC & INDUSTRIAL RESEARCH, priority 2010, published 2013)

Test system: amphetamine induced hyperactivity mice model
Test: Amphetamine induced hyperactivity mouse model
Conditions: in-vitro and in-vivo evaluation, FIGS. 3 and 4
Experimental: The animals were housed in plastic polypropylene cages under standard animal house conditions with a 12 hours light/dark cycle and temperature of 25±2° C.
The mice randomly grouped in batches of seven animals per group. The basal motor activity (distance traveled) of each mouse was recorded individually using automated activity monitor (TSE, Germany). After basal activity recording, a group of seven animals were challenged with amphetamine [5.5 mg/kg, intra peritoneal (i.p) dissolved in normal saline]. After 30 min. amphetamine injection, motor activity was recorded for individual animal for 5 min.
The difference in motor activity as indicated by distance traveled in animals with amphetamine alone treated and animals with samples plus amphetamine challenge was recorded as inhibition in hyper activity caused by amphetamine and data presented as percent inhibition in amphetamine induced hyperactivity.

| Structure (SMILES) | antipsychotic activity in-vitro and in-vivo |
| --- | --- |
| COC(=O)C1C(OC(C)=O)CCC2CN3CCc4c([nH]c5ccccc45)C3CC21 (stereo not drawn) [K001A, 17-O-acetyl α-yohimbine] | potential antipsychotic activity |
| COC(=O)C1C(OC(=O)c2cccc([N+](=O)[O-])c2)CCC2CN3CCc4c([nH]c5ccccc45)C3CC21 (stereo not drawn) [K001C, 17-O-(3″)-nitrobenzoyl α-yohimbine] | potential antipsychotic activity |
| COC(=O)C1C(OC(=O)c2ccc([N+](=O)[O-])cc2)CCC2CN3CCc4c([nH]c5ccccc45)C3CC21 (stereo not drawn) [K001E, 17-O-(4″)-nitrobenzoyl-α-yohimbine] | potential antipsychotic activity |
| COC(=O)C1C(OC(=O)C=Cc2ccccc2)CCC2CN3CCc4c([nH]c5ccccc45)C3CC21 (stereo not drawn) [K001F, 17-O-cinnamoyl α-yohimbine] | potential antipsychotic activity |
